Results reported in PMC7932555, “A diffusible signal factor of the intestine dictates Salmonella invasion through its direct control of the virulence activator HilD” (PLoS Pathogens, 2021).
Positions count from the first letter of the chain named.

What was measured:
Assay in all cases: HilD half-life (degradation) assay by western blot
Assay type in all cases: cell-based
HilD [1] = target: T1, HilD (Salmonella typhimurium, UniProt P0CL08, Q290A); conditions: HilD Q290A-3XFLAG; 20 μM fatty acid
T1 construct: hilD with a C-terminal 3XFLAG tag was cloned into pWSK29 under control of the tetRA promoter; expressed in transfected cells; host or cells: Salmonella Typhimurium strain carrying pWSK29-PtetRA-hilD-3XFLAG (background with chromosomal hilD, hilC and rtsA null)
T1 sequence (P0CL08 1-309 Q290A): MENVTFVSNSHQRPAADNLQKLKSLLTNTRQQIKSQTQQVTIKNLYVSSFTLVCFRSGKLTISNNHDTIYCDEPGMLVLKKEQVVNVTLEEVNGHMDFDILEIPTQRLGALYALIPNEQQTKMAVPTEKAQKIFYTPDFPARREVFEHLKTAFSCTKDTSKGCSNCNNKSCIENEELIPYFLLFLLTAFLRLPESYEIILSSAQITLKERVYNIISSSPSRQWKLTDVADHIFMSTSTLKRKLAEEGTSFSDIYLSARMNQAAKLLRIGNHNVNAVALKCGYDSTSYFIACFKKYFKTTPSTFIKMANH
Description: (§1) The HilD half-life was assessed as previously described. Salmonella strains having plasmids with tetracycline-inducible hilD or its mutated sequence with a C-terminal 3XFLAG tag and a sipB::lacZ fusion (for invasion gene expression assessment) were grown overnight and then diluted 1:100 into LB buffered with 100 mM MOPS (pH 6.7) with appropriate antibiotics and fatty acids or control solvents. After 2 hours of growth, aliquots were collected to quantitate sipB::lacZ expression in a β-galactosidase assay. Individual cultures were then equilibrated to an OD600 of 1.0 to ensure equal density at the half-life assay beginning point. New protein production was halted by addition of a cocktail of antibiotics (rifampin, streptomycin and spectinomycin). These cultures were incubated at 37°C and aliquots were collected every 30 minutes for 2 hours. Samples were lysed in 5X sample buffer, boiled, and immunoblotted with an anti-FLAG antibody to monitor HilD.

HilD [2] = target: T2, HilD (Salmonella typhimurium, UniProt P0CL08, K43A); conditions: HilD K43A-3XFLAG; 20 μM fatty acid
T2 construct: hilD with a C-terminal 3XFLAG tag was cloned into pWSK29 under control of the tetRA promoter; expressed in transfected cells; host or cells: Salmonella Typhimurium strain carrying pWSK29-PtetRA-hilD-3XFLAG (background with chromosomal hilD, hilC and rtsA null)
T2 sequence (P0CL08 1-309 K43A): T1 sequence (P0CL08 1-309 Q290A) with K43A, A290Q
Description: as §1

HilD [3] = target: T3, HilD (Salmonella typhimurium, UniProt P0CL08, R267A); conditions: HilD R267A-3XFLAG; 20 μM fatty acid
T3 construct: hilD with a C-terminal 3XFLAG tag was cloned into pWSK29 under control of the tetRA promoter; expressed in transfected cells; host or cells: Salmonella Typhimurium strain carrying pWSK29-PtetRA-hilD-3XFLAG (background with chromosomal hilD, hilC and rtsA null)
T3 sequence (P0CL08 1-309 R267A): T1 sequence (P0CL08 1-309 Q290A) with R267A, A290Q
Description: as §1

HilD [4] = target: T4, HilD (Salmonella typhimurium, UniProt P0CL08, K294A); conditions: HilD K294A-3XFLAG; 20 μM fatty acid
T4 construct: hilD with a C-terminal 3XFLAG tag was cloned into pWSK29 under control of the tetRA promoter; expressed in transfected cells; host or cells: Salmonella Typhimurium strain carrying pWSK29-PtetRA-hilD-3XFLAG (background with chromosomal hilD, hilC and rtsA null)
T4 sequence (P0CL08 1-309 K294A): T1 sequence (P0CL08 1-309 Q290A) with A290Q, K294A
Description: as §1

HilD [5] = target: T5, HilD (Salmonella typhimurium, UniProt P0CL08); conditions: wild type HilD-3XFLAG; grown with 20 μM fatty acid for two hours, protein expression halted
T5 construct: hilD with a C-terminal 3XFLAG tag was cloned into pWSK29 under control of the tetRA promoter; expressed in transfected cells; host or cells: Salmonella Typhimurium strain carrying pWSK29-PtetRA-hilD-3XFLAG (background with chromosomal hilD, hilC and rtsA null)
T5 sequence (P0CL08 1-309): T1 sequence (P0CL08 1-309 Q290A) with A290Q
Description: as §1

HilD [6] = target: T6, HilD (Salmonella typhimurium, UniProt P0CL08, N44A); conditions: HilD N44A-3XFLAG; 20 μM fatty acid
T6 construct: hilD with a C-terminal 3XFLAG tag was cloned into pWSK29 under control of the tetRA promoter; expressed in transfected cells; host or cells: Salmonella Typhimurium strain carrying pWSK29-PtetRA-hilD-3XFLAG (background with chromosomal hilD, hilC and rtsA null)
T6 sequence (P0CL08 1-309 N44A): T1 sequence (P0CL08 1-309 Q290A) with N44A, A290Q
Description: as §1

CCCCCCCCCCCCC/C=C\C(=O)O [c2-HDA, cis-2-hexadecenoic acid]
HilD degradation (HilD [1]): degraded as rapidly as wild type HilD
HilD degradation (HilD [2]): degraded as rapidly as wild type HilD
HilD degradation (HilD [3]): protected from degradation
HilD degradation (HilD [4]): protected from degradation
HilD degradation (HilD [5]): Rapid degradation
HilD degradation (HilD [6]): protected from degradation

CCCCCCCCCCCCC/C=C/C(=O)O [t2-HDA, trans-2-hexadecenoic acid]
HilD degradation (HilD [1]): escaped degradation
HilD degradation (HilD [2]): escaped degradation
HilD degradation (HilD [3]): escaped degradation
HilD degradation (HilD [4]): rapidly degraded
HilD degradation (HilD [5]): degraded
HilD degradation (HilD [6]): escaped degradation
